Conditions: Gas, Oscillating disk viscometry

FC(F)CC(F)(F)F [1,1,1,3,3-pentafluoropropane]
Conditions | viscosity [mPa·s]
300.81 K, 136 kPa | 0.01064
300.88 K, 113 kPa | 0.01065
300.93 K, 107 kPa | 0.01066
320.26 K, 145 kPa | 0.01124
320.33 K, 186 kPa | 0.01125
320.53 K, 108 kPa | 0.01127
320.58 K, 254 kPa | 0.01127
338.61 K, 100 kPa | 0.01186
338.61 K, 435 kPa | 0.01186
338.98 K, 307 kPa | 0.01184
339.02 K, 207 kPa | 0.01186
339.15 K, 145 kPa | 0.01186
357.15 K, 592 kPa | 0.01252
357.23 K, 104 kPa | 0.01256
357.23 K, 305 kPa | 0.01253
357.38 K, 159 kPa | 0.01255
357.39 K, 108 kPa | 0.01256
357.4 K, 224 kPa | 0.01254
357.43 K, 403 kPa | 0.01252
357.43 K, 708 kPa | 0.01252
357.52 K, 503 kPa | 0.01252
376.25 K, 164 kPa | 0.01303
376.38 K, 254 kPa | 0.01303
376.39 K, 567 kPa | 0.01306
376.43 K, 1071 kPa | 0.01318
376.46 K, 107 kPa | 0.01304
376.54 K, 348 kPa | 0.01304
376.58 K, 676 kPa | 0.01308
376.61 K, 457 kPa | 0.01305
376.61 K, 945 kPa | 0.01314
376.63 K, 1312 kPa | 0.01339
376.64 K, 797 kPa | 0.0131
395.6 K, 109 kPa | 0.01357
395.66 K, 213 kPa | 0.01355
395.77 K, 311 kPa | 0.01358
395.8 K, 417 kPa | 0.01359
395.81 K, 823 kPa | 0.0137
395.85 K, 512 kPa | 0.01362
395.93 K, 616 kPa | 0.01364
395.93 K, 723 kPa | 0.01366
396 K, 934 kPa | 0.01374
396.02 K, 1280 kPa | 0.01396
396.17 K, 1390 kPa | 0.01408
396.22 K, 1164 kPa | 0.01388
396.24 K, 1044 kPa | 0.01386
396.35 K, 1505 kPa | 0.01416
396.46 K, 1614 kPa | 0.0143

[Ar] [argon]
Conditions | viscosity [mPa·s]
300.11 K, 400 kPa | 0.02271
300.17 K, 103 kPa | 0.02279
300.19 K, 199 kPa | 0.02265
300.25 K, 302 kPa | 0.02265
300.32 K, 832 kPa | 0.02286
300.38 K, 616 kPa | 0.0228
300.49 K, 2082 kPa | 0.02335
300.54 K, 3089 kPa | 0.02347
300.56 K, 4050 kPa | 0.02364
300.58 K, 4503 kPa | 0.02383
300.63 K, 3427 kPa | 0.02343
300.66 K, 2759 kPa | 0.02338
300.68 K, 1446 kPa | 0.02313
300.7 K, 3729 kPa | 0.02351
300.72 K, 2458 kPa | 0.02338
300.76 K, 1775 kPa | 0.02325
300.89 K, 1117 kPa | 0.02293
